Reference: patent US20230109801A1 (Blue Oak Pharmaceuticals, Inc., priority 2020, published 2023)
Structures can show the parent of a compound that is named as a salt.

System: mice
Assay: SmartCube in vivo neuropharmacological behavioral assay
Conditions: for minimal effective dose: Mus musculus, ip, dose having 50% or more total activity in SmartCube, i.p., read-out: MED (minimal effective dose); for AD: antidepressant, percent probability / AG: analgesic, percent probability / AP: antipsychotic, percent probability / AX: anxiolytic, percent probability / CE: cognitive enhancer, percent probability / HA: hallucinogenic, percent probability / MS: mood stabilizer, percent probability / PS, percent probability / SD: sedative hypnotic, percent probability / SE: side effects, percent probability / UN: uncharacterized CNS activity, percent probability / XG: anxiogenic, percent probability: SmartCube, i.p. 15 min before test, at the MED
Method: The compounds were evaluated for their CNS related properties (e.g., the treatment, prevention or diagnosis of CNS or CNS-related disorders and/or amelioration of symptoms) using neuropharmacological screening methods described in S. L. Roberts et al., Front. Neurosci. 2011, 5:103 (hereinafter referred to as “Roberts,” the contents of which are incorporated herein by reference in their entirety).
According to Roberts, intact systems are useful in detecting improvement in disease-relevant endpoints, because psychiatric diseases generally result from disorders of cell-cell communication or circuitry. The endpoints are typically behavioral in nature, often requiring human observation and interpretation. In order to test multiple compounds for behavioral effects relevant to neurological and psychiatric diseases and disorders, PsychoGenics, Inc. (Paramus, N.J. “PGI”) developed SmartCube®, an automated system in which behaviors of compound-treated mice are captured by digital video and analyzed with computer algorithms to facilitate testing of multiple compounds for behavioral effects relevant to psychiatric disease. (D. Brunner et al., Drug Discov. Today 2002, 7:S107-S112; Alexandrov et al., Eur. J. Pharmacol. 2015, 753:127-134; the contents of each of which are incorporated herein by reference in their entirety).
The SmartCube® system is described in Example 2.2 of U.S. Pat. No. 9,758,529 and Example 289 of WIPO Publication No. WO2018/023070, the contents of each of which are incorporated herein by reference in their entirety.
According to the present disclosure, compounds identified may be evaluated using the SmartCube® system. The results of such analysis correlate certain patterns or combinations of behaviors to CNS effects along a percent probability scale of 0-100 where zero (O) reflects the limit of quantitation (LOQ).
The compounds of the present disclosure were evaluated for their CNS related properties (e.g., the treatment, prevention or diagnosis of CNS or CNS-related disorders and/or amelioration of symptoms) using neuropharmacological screening methods described in S. L. Roberts et al., Front. Neurosci. 2011, 5:103 (hereinafter referred to as “Roberts,” the contents of which are incorporated herein by reference in their entirety).
The SmartCube® system described herein was utilized to compare the behavioral signature of a test compound to a database of behavioral signatures obtained using a large set of diverse reference compounds (including but not limited to antipsychotics, anxiolytics, antidepressants and bipolar disorder medicine), thereby predicting the neuropharmacological effects of a test compound by similarity to major classes of compounds. It produces an activity signature indicating the probability that the activity of the test compound at the administered dose matches a given class of neuropharmacological agents. The test compound is simultaneously compared against multiple classes of agents; thus, a separate probability is generated for each behavioral effect measured (such as but not limited to anxiolytic activity and analgesic activity).
The compounds of the present disclosure were dissolved in a mixture of Pharmasolve™ (N-methyl-2-pyrrolidone (NMP)) and were injected i.p. 15 min. before the behavioral test. For each compound, injections were administered at different dose levels (e.g., 0.3, 1, 3, 10 and 30 mg per kg (mpk)). A compound's minimal effective dose (MED; see Table 3) is a measure of the compound's potency. The MED was defined as the dose (in mpk) having 50% or more total activity in SmartCube®. For each behavioral effect measured, results at the MED are presented. CNS activities of the compounds were recorded (see Table 2). In Table 1, a key to the percent probabilities (probability×100) for each behavioral effect (“X”) are defined provided, where LOQ is the limit of quantification.

Row | Compound | minimal effective dose [mg/kg] | AD: antidepressant, percent probability | AG: analgesic, percent probability | AP: antipsychotic, percent probability | AX: anxiolytic, percent probability | CE: cognitive enhancer, percent probability | HA: hallucinogenic, percent probability | MS: mood stabilizer, percent probability | PS, percent probability | SD: sedative hypnotic, percent probability | SE: side effects, percent probability | UN: uncharacterized CNS activity, percent probability | XG: anxiogenic, percent probability
1 | Cc1ccc2c(c1)C1CCC2N1C(C)C (stereo not shown) [Compound 21, 4-Methyl-11-(propan-2-yl)-11-azatricyclo[6.2.1.0^2,7]undeca-2,4,6-triene hydrochloride] | 10 to 30 | ++ (5% ≤ X < 25%) | + (LOQ ≤ X < 5%) | + (LOQ ≤ X < 5%) | ++ (5% ≤ X < 25%) | + (LOQ ≤ X < 5%) | + (LOQ ≤ X < 5%) | + (LOQ ≤ X < 5%) | + (LOQ ≤ X < 5%) | + (LOQ ≤ X < 5%) | ++++ (50% ≤ X <1 00%) | ++ (5% ≤ X < 25%) | + (LOQ ≤ X < 5%)
2 | COc1cccc2c1C1CCC2N1C(C)C (stereo not shown) [Compound 18, 3-Methoxy-11-(propan-2-yl)-11-azatricyclo[6.2.1.0^2,7]undeca-2,4,6-triene hydrochloride] | 10 to 30 | ++ (5% ≤ X < 25%) | + (LOQ ≤ X < 5%) | + (LOQ ≤ X < 5%) | ++ (5% ≤ X < 25%) | ++ (5% ≤ X < 25%) | + (LOQ ≤ X < 5%) | + (LOQ ≤ X < 5%) | + (LOQ ≤ X < 5%) | ++ (5% ≤ X < 25%) | +++ (25% ≤ X < 50%) | + (LOQ ≤ X < 5%) | + (LOQ ≤ X < 5%)
3 | CC1C2NC(c3ccccc32)C1C (stereo not shown) [Compound 48, 9,10-Dimethyl-11-azatricyclo[6.2.1.0^2,7]undeca-2,4,6-triene hydrochloride] | 10 to 30 | ++ (5% ≤ X < 25%) | + (LOQ ≤ X < 5%) | + (LOQ ≤ X < 5%) | ++ (5% ≤ X < 25%) | ++++ (50% ≤ X <1 00%) | ++ (5% ≤ X < 25%) | + (LOQ ≤ X < 5%) | ++ (5% ≤ X < 25%) | + (LOQ ≤ X < 5%) | + (LOQ ≤ X < 5%) | + (LOQ ≤ X < 5%) | + (LOQ ≤ X < 5%)
4 | CC(C)N1C2CCC1c1c(Cl)cccc12 (stereo not shown) [Compound 14, 3-Chloro-11-(propan-2-yl)-11-azatricyclo[6.2.1.0^2,7]undeca-2,4,6-triene hydrochloride] | > 30 | +++ (25% ≤ X < 50%) | ++ (5% ≤ X < 25%) | + (LOQ ≤ X < 5%) | ++ (5% ≤ X < 25%) | + (LOQ ≤ X < 5%) | + (LOQ ≤ X < 5%) | + (LOQ ≤ X < 5%) | ++ (5% ≤ X < 25%) | + (LOQ ≤ X < 5%) | + (LOQ ≤ X < 5%) | + (LOQ ≤ X < 5%) | + (LOQ ≤ X < 5%)
